In ChEMBL document CHEMBL1128908, “Synthesis and biological evaluation of 2,3-diarylthiophenes as selective cox-2 inhibitors. part II: Replacing the heterocycle” (Bioorg Med Chem Lett, 1996):

What was measured:
[1] = target: Prostaglandin G/H synthase 1 (Homo sapiens, UniProt P23219); test: biochemical; type: cell-based, Sf9, Microsomes
Description: Inhibitory activity against human recombinant Prostaglandin G/H synthase 1 expressed in microsomes taken from baculovirus infected Sf9 cells

[2] = target: T1, Prostaglandin G/H synthase 2 (Homo sapiens, UniProt P35354); test: biochemical; type: cell-based, Sf9, Microsomes
T1 sequence (P35354 whole entry): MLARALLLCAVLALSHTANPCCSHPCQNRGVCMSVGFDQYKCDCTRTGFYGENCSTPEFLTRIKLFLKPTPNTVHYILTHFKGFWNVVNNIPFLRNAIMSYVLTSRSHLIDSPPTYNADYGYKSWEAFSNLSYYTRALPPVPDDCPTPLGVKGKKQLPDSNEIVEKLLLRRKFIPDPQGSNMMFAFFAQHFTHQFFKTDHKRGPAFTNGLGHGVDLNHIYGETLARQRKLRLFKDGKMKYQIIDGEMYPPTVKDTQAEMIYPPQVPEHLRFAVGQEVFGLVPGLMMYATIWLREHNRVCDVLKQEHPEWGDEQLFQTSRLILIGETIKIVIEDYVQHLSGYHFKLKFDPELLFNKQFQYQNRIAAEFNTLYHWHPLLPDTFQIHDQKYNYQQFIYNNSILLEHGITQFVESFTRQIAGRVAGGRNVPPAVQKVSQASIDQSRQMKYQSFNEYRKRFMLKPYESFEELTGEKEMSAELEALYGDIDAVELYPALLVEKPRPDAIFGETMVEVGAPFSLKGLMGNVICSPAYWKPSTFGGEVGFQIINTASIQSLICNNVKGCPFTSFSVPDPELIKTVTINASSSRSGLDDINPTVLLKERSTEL
Description: Inhibitory activity against human recombinant Prostaglandin G/H synthase 2 expressed in microsomes taken from baculovirus infected Sf9 cells

Rattus norvegicus [3] = test: Compound was evaluated in vivo for effect on gastrointestinal integrity (GI) in rats using [51Cr]- assay: causes lesions; type: functional, organism-based
[4] = Plasma concentration at 2 hr in rats was evaluated.; type: ADME, organism-based; conditions: rat
Rattus norvegicus [5] = test: Compound was evaluated in vivo for potency against rat paw edema model; type: functional
Rattus norvegicus [6] = test: Compound was evaluated in vivo for effect on gastrointestinal integrity(GI) in rats using [51Cr]- assay: causes lesions; type: functional, organism-based
Rattus norvegicus [7] = test: Compound was evaluated in vivo for effect on gastrointestinal integrity(GI) in rats using [51Cr]- assay: no lesions observed; type: functional, organism-based

Prostaglandin G/H synthase 1, sequence (P23219 whole entry): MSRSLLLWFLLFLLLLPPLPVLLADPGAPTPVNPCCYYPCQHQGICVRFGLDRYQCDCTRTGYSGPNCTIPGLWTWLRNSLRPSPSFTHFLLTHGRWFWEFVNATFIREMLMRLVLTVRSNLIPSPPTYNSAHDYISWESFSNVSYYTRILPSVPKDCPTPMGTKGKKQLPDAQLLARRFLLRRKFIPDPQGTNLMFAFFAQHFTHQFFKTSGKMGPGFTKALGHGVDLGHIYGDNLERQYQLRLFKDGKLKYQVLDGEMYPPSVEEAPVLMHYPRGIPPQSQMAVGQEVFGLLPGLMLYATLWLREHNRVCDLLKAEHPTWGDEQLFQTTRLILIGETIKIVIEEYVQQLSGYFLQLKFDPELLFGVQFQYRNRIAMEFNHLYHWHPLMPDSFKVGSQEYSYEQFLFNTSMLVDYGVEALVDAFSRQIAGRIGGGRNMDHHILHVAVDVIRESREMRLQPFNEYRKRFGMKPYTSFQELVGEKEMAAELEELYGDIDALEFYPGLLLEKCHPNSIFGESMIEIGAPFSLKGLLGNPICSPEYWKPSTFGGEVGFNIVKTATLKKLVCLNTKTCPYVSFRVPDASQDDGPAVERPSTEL

SMILES | IC50 [1] [µM] | IC50 [2] [µM] | other results
CS(=O)(=O)c1ccc(-c2c(-c3ccc(F)cc3)csc2Br)cc1 | > 50 | > 30 | –
CS(=O)(=O)c1ccc(C2=C(c3ccc(F)cc3)C3CCC2C3)cc1 (stereo unspecified) | > 50 | 30 | –
CS(=O)(=O)c1ccc(-c2cc(Br)sc2-c2ccc(F)cc2)cc1 [DUP-697] | – | – | growth inhibition (GI) (Rattus norvegicus [3]): causes lesions; concentration at 2 h [4]: 700 ng/mL; ED50 (Rattus norvegicus [5]): 1.3 mg/kg
Cc1nc(-c2ccc(F)cc2)c(-c2ccc(S(C)(=O)=O)cc2)s1 | > 100 | 0.31 | –
CS(=O)(=O)c1ccc(-c2ncoc2-c2ccc(F)cc2)cc1 | > 100 | > 30 | –
CS(=O)(=O)c1ccc(-c2ocnc2-c2ccc(F)cc2)cc1 | > 100 | > 30 | –
CS(=O)(=O)c1ccc(-n2nnnc2-c2ccc(F)c(F)c2)cc1 | > 100 | > 30 | –
CC(C)(O)c1scc(-c2ccc(S(C)(=O)=O)cc2)c1-c1ccc(F)cc1 | > 50 | 5.9 | –
CS(=O)(=O)c1ccc(-c2sncc2-c2ccc(F)cc2)cc1 | > 100 | 5.1 | –
CS(=O)(=O)c1ccc(-c2nnnn2-c2ccc(F)c(F)c2)cc1 | > 50 | > 30 | –
CS(=O)(=O)c1ccc(-c2cc(C(F)(F)F)nn2-c2ccc(F)cc2)cc1 | > 1.1 | 1.2 | –
CS(=O)(=O)c1ccc(-c2cnsc2-c2ccc(F)cc2)cc1 | > 100 | 2.1 | concentration at 2 h [4]: 2200 ng/mL; ED50 (Rattus norvegicus [5]): 10 mg/kg
CS(=O)(=O)c1ccc(-c2cscc2-c2ccc(F)cc2)cc1 | > 100 | 0.47 | –
CS(=O)(=O)c1ccc(-c2oc(=O)oc2-c2ccccc2)cc1 | > 50 | > 30 | –
CS(=O)(=O)c1ccc(-c2c(-c3ccc(F)cc3)csc2CC(=O)O)cc1 | > 50 | > 10 | –
CS(=O)(=O)c1ccc(-c2[nH]cnc2-c2ccc(F)cc2)cc1 | > 100 | > 30 | –
Cc1nc(-c2ccc(S(C)(=O)=O)cc2)c(-c2ccc(F)cc2)s1 | > 100 | 0.31 | –
CS(=O)(=O)c1ccc(-c2[nH]nnc2-c2ccccc2)cc1 | > 50 | > 30 | –
COc1ccc2c(c1)c(CC(=O)O)c(C)n2C(=O)c1ccc(Cl)cc1 [INDOMETHACIN] | – | – | growth inhibition (GI) (Rattus norvegicus [6]): Causes lesions; ED50 (Rattus norvegicus [5]): 2 mg/kg
CS(=O)(=O)c1ccc(-c2snnc2-c2ccc(F)cc2)cc1 | > 100 | 6.5 | concentration at 2 h [4]: 12800 ng/mL; growth inhibition (GI) (Rattus norvegicus [7]): no lesions observed; ED50 (Rattus norvegicus [5]): 0.7 mg/kg
CS(=O)(=O)c1ccc(-c2csc(Br)c2-c2ccc(F)cc2)cc1 | 1.2 | – | –
CS(=O)(=O)c1ccc(-c2csc(CC(=O)O)c2-c2ccc(F)cc2)cc1 | > 50 | > 10 | –
CC(C)(O)c1scc(-c2ccc(F)cc2)c1-c1ccc(S(C)(=O)=O)cc1 | > 50 | > 30 | –
